Laboratory results: BindingDB's records for doi:10.1021/jm970499g (Novartis Institute For Medical Sciences, 1998)

Columns and labels:
[1] = molecular target: Substance-P receptor (rabbit); assay: In vitro binding affinity towards Tachykinin receptor 1 to displace [3H][Sar9Met(O2)11]-SP (1 nM) binding to rabbit whole brain membranes
[2] = molecular target: Substance-P receptor (rabbit); assay: as above; remark: listed apart in the source

Ki [1] [nM] | IC50 [2] [nM] | Structure (SMILES)
1280 |  | COc1ccccc1CNC(=S)N1CCC[C@H]1C(=O)N[C@H](Cc1ccccc1)C(=O)N(C)Cc1ccccc1
1270 |  | O=C(NC(c1ccccc1)c1ccccc1)[C@@H]1CCCN1C(=S)NCc1ccccc1F [(S)-1-(2-Fluoro-benzylthiocarbamoyl)-pyrrolidine-2-carboxylic acid benzhydryl-amide]
170 |  | O=C(NC(c1ccccc1)c1ccccc1)[C@@H]1CCCN1C(=S)NCc1ccccc1Cl [(S)-1-(2-Chloro-benzylthiocarbamoyl)-pyrrolidine-2-carboxylic acid benzhydryl-amide]
 | > 5000 | COc1ccccc1CNC(=S)N1CCC[C@H]1C(=O)NCC(c1ccccc1)c1ccccc1 [(S)-1-(2-Methoxy-benzylthiocarbamoyl)-pyrrolidine-2-carboxylic acid (2,2-diphenyl-ethyl)-amide]
 | > 5000 | COc1ccccc1CNC(=S)N1CCC[C@@H]1C(=O)NC(c1ccccc1)c1ccccc1 [(R)-1-(2-Methoxy-benzylthiocarbamoyl)-pyrrolidine-2-carboxylic acid benzhydryl-amide]
330 |  | COc1ccccc1CNC(=S)N1CCC[C@H]1C(=O)NC(c1ccccc1)c1ccccc1 [(S)-1-(2-Methoxy-benzylthiocarbamoyl)-pyrrolidine-2-carboxylic acid benzhydryl-amide]
 | > 50000 | COc1ccccc1COC(=O)N1CCC[C@H]1C(=O)NC(c1ccccc1)c1ccccc1 [(S)-2-(Benzhydryl-carbamoyl)-pyrrolidine-1-carboxylic acid 2-methoxy-benzyl ester]
 | > 50000 | COc1ccccc1CNC(=S)N1CCC[C@H]1C(=O)N(Cc1ccccc1)Cc1ccccc1 [(S)-1-(2-Methoxy-benzylthiocarbamoyl)-pyrrolidine-2-carboxylic acid dibenzylamide]
 | > 5000 | O=C(NC(c1ccccc1)c1ccccc1)[C@@H]1CCCN1C(=S)NCc1ccccc1 [(S)-1-Benzylthiocarbamoyl-pyrrolidine-2-carboxylic acid benzhydryl-amide]
260 |  | COc1ccccc1CNC(=S)N1CCC[C@H]1C(=O)N[C@@H](Cc1ccccc1)C(=O)N(C)Cc1ccccc1
 | > 50000 | COc1ccccc1CNC(=NC#N)N1CCC[C@H]1C(=O)NC(c1ccccc1)c1ccccc1 [1-[N-(2-Methoxy-benzyl)-N'-cyano-carbamimidoyl]-pyrrolidine-2-carboxylic acid benzhydryl-amide]
 | > 50000 | Nc1ccccc1CNC(=S)N1CCC[C@H]1C(=O)NC(c1ccccc1)c1ccccc1 [(S)-1-(2-Amino-benzylthiocarbamoyl)-pyrrolidine-2-carboxylic acid benzhydryl-amide]
170 |  | O=C(NC(c1ccccc1)c1ccccc1)[C@@H]1CCCN1C(=S)NCc1ccccc1Br [(S)-1-(2-Bromo-benzylthiocarbamoyl)-pyrrolidine-2-carboxylic acid benzhydryl-amide]
